± gives the standard deviation of the averaged measurements.

This note sets out measurements from the supplement of paper PMC6045584.

Compound in assay [1]: CCN(CC)CCCCNc1ncc2cc(-c3cc(OC)cc(OC)c3)c(NC(=O)NC(C)(C)C)nc2n1
Put plainly: surviving fraction relative to DMSO-only wells; higher = less growth inhibition. The note with it: exposure time: 5 days. The method in brief: (§1)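 Surviving fraction was calculated by normalising CellTiter-Glo luminescence to the median of DMSO-only wells. Tumour cell lines in log phase were seeded in 384-well plates at 250–500 cells per well, and 24 hours later were exposed continuously for five days to inhibitors at 0.5, 1, 5, 10, 50, 100, 500 and 1000 nM.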

Compound in another assay: CC[C@@H](C(=O)[C@@H](C)[C@@H](O)[C@H](C)[C@@H]1O[C@@H]([C@@H](CC)C(=O)O)CC[C@@H]1C)[C@H]1O[C@]2(C=C[C@@H](O)[C@]3(CC[C@@](C)([C@H]4CC[C@](O)(CC)[C@H](C)O4)O3)O2)[C@H](C)C[C@@H]1C [SALINOMYCIN]
The description is as above. Conditions: exposure time: 5 days. The method in brief:
as §1

For the test system SCC003 HEADNECK, the surviving fraction came to 0.927 ± 0.046 in assay [1] (0.5 nM); 1.02 ± 0.055 in assay [1] (1 nM); 1.02 ± 0.092 in assay [1] (5 nM); 1.01 ± 0.086 in assay [1] (10 nM); 0.981 ± 0.037 in assay [1] (50 nM); 1.11 ± 0.091 in assay [1] (100 nM). Also, the surviving fraction is 1.09 ± 0.13 in assay [1] (500 nM); 0.988 ± 0.097 in assay [1] (1000 nM); 0.904 ± 0.056 with SALINOMYCIN (0.5 nM); 0.863 ± 0.098 with SALINOMYCIN (1 nM); 0.946 ± 0.042 with SALINOMYCIN (5 nM); 0.973 ± 0.059 in the assay with SALINOMYCIN (10 nM). In addition, the surviving fraction with SALINOMYCIN (50 nM) turned out to be 1.04 ± 0.11; in the assay with SALINOMYCIN (100 nM), 0.897 ± 0.05; in the assay with SALINOMYCIN (500 nM), 0.49 ± 0.021; with SALINOMYCIN (1000 nM), 0.267 ± 0.016.

As to SCC36 HEADNECK, the surviving fraction in assay [1] (0.5 nM) came out at 1.1 ± 0.082; in assay [1] (1 nM), 1.03 ± 0.12; in assay [1] (5 nM), 1.1 ± 0.15; in assay [1] (10 nM), 1.19 ± 0.028; in assay [1] (50 nM) it was 0.978 ± 0.086; in assay [1] (100 nM), 1.04 ± 0.043. In addition, the surviving fraction worked out at 0.83 ± 0.039 in assay [1] (500 nM); 0.692 ± 0.082 in assay [1] (1000 nM); 0.984 ± 0.07 in the assay with SALINOMYCIN (0.5 nM); 0.972 ± 0.12 in the assay with SALINOMYCIN (1 nM); 1.094 ± 0.0015 with SALINOMYCIN (5 nM); 0.973 ± 0.039 in the assay with SALINOMYCIN (10 nM). Also, the surviving fraction in the assay with SALINOMYCIN (50 nM) was found to be 1.11 ± 0.02; in the assay with SALINOMYCIN (100 nM), 0.925 ± 0.051; with SALINOMYCIN (500 nM), 0.149 ± 0.011; with SALINOMYCIN (1000 nM) it was 0.08 ± 0.0078.

SCC47 HEADNECK: the surviving fraction turned out to be 0.979 ± 0.033 in assay [1] (0.5 nM); 0.993 ± 0.082 in assay [1] (1 nM); 0.996 ± 0.05 in assay [1] (5 nM); 1.07 ± 0.047 in assay [1] (10 nM); 0.968 ± 0.079 in assay [1] (50 nM); 1 ± 0.14 in assay [1] (100 nM). The surviving fraction came to 1.05 ± 0.067 in assay [1] (500 nM); 0.995 ± 0.019 in assay [1] (1000 nM); 0.842 ± 0.064 with SALINOMYCIN (0.5 nM); 0.792 ± 0.026 with SALINOMYCIN (1 nM); 0.977 ± 0.074 with SALINOMYCIN (5 nM); 0.992 ± 0.044 in the assay with SALINOMYCIN (10 nM). The surviving fraction stood at 1.06 ± 0.085 with SALINOMYCIN (50 nM), 1 ± 0.12 in the assay with SALINOMYCIN (100 nM), 0.561 ± 0.068 with SALINOMYCIN (500 nM) and 0.489 ± 0.023 with SALINOMYCIN (1000 nM).

For the test system SCC90 HEADNECK, the surviving fraction in assay [1] (0.5 nM) was determined as 0.884 ± 0.044; in assay [1] (1 nM) it was 0.96 ± 0.036; in assay [1] (5 nM), 0.839 ± 0.18; in assay [1] (10 nM), 0.951 ± 0.036; in assay [1] (50 nM) it was 0.88 ± 0.049; in assay [1] (100 nM) it was 0.961 ± 0.17. Further, the surviving fraction was 0.883 ± 0.17 in assay [1] (500 nM); 0.814 ± 0.035 in assay [1] (1000 nM); 0.897 ± 0.073 with SALINOMYCIN (0.5 nM); 0.919 ± 0.035 in the assay with SALINOMYCIN (1 nM); 1.16 ± 0.059 with SALINOMYCIN (5 nM); 0.986 ± 0.14 with SALINOMYCIN (10 nM). For the same test system, the surviving fraction with SALINOMYCIN (50 nM) came out at 1.17 ± 0.2; with SALINOMYCIN (100 nM) it was 0.963 ± 0.057; with SALINOMYCIN (500 nM), 0.301 ± 0.041; with SALINOMYCIN (1000 nM) it was 0.255 ± 0.067.

Turning to SG27 HEADNECK, the surviving fraction came out at 0.947 ± 0.15 in assay [1] (0.5 nM); 1.03 ± 0.087 in assay [1] (1 nM); 1.01 ± 0.12 in assay [1] (5 nM); 1.01 ± 0.086 in assay [1] (10 nM); 0.879 ± 0.04 in assay [1] (50 nM); 0.817 ± 0.032 in assay [1] (100 nM). Besides, the surviving fraction in assay [1] (500 nM) was 0.784 ± 0.05; in assay [1] (1000 nM), 0.805 ± 0.047; in the assay with SALINOMYCIN (0.5 nM), 1.03 ± 0.099; in the assay with SALINOMYCIN (1 nM) it was 1.09 ± 0.17; with SALINOMYCIN (5 nM) it was 0.997 ± 0.11; with SALINOMYCIN (10 nM) it was 0.921 ± 0.094. Also, the surviving fraction in the assay with SALINOMYCIN (50 nM) is 1.12 ± 0.08; with SALINOMYCIN (100 nM), 1.1 ± 0.074; with SALINOMYCIN (500 nM) it was 0.249 ± 0.028; with SALINOMYCIN (1000 nM), 0.184 ± 0.015.

As to SG28 HEADNECK, the surviving fraction in assay [1] (0.5 nM) turned out to be 1.04 ± 0.15; in assay [1] (1 nM), 1.09 ± 0.076; in assay [1] (5 nM), 1.03 ± 0.09; in assay [1] (10 nM), 1.11 ± 0.034; in assay [1] (50 nM), 0.968 ± 0.028; in assay [1] (100 nM), 1.05 ± 0.1. The surviving fraction amounted to 0.967 ± 0.091 in assay [1] (500 nM); 0.938 ± 0.11 in assay [1] (1000 nM); 1.05 ± 0.098 with SALINOMYCIN (0.5 nM); 1.08 ± 0.06 with SALINOMYCIN (1 nM); 1.07 ± 0.16 with SALINOMYCIN (5 nM); 0.835 ± 0.1 in the assay with SALINOMYCIN (10 nM). The surviving fraction is 0.835 ± 0.077 in the assay with SALINOMYCIN (50 nM), 0.762 ± 0.046 with SALINOMYCIN (100 nM), 0.498 ± 0.068 with SALINOMYCIN (500 nM) and 0.323 ± 0.037 in the assay with SALINOMYCIN (1000 nM).

For SG31 HEADNECK, the surviving fraction in assay [1] (0.5 nM) was determined as 1.04 ± 0.055; in assay [1] (1 nM), 0.949 ± 0.11; in assay [1] (5 nM) it was 0.934 ± 0.15; in assay [1] (10 nM), 0.932 ± 0.12; in assay [1] (50 nM), 0.845 ± 0.12; in assay [1] (100 nM), 0.997 ± 0.051. The surviving fraction in assay [1] (500 nM) was 0.934 ± 0.069; in assay [1] (1000 nM), 0.934 ± 0.1; with SALINOMYCIN (0.5 nM) it was 1.08 ± 0.15; with SALINOMYCIN (1 nM), 1.12 ± 0.036; with SALINOMYCIN (5 nM), 1.07 ± 0.089; with SALINOMYCIN (10 nM), 0.888 ± 0.097. The surviving fraction in the assay with SALINOMYCIN (50 nM) stood at 0.924 ± 0.048; in the assay with SALINOMYCIN (100 nM), 0.863 ± 0.093; with SALINOMYCIN (500 nM), 0.413 ± 0.033; with SALINOMYCIN (1000 nM) it was 0.317 ± 0.047.

SG32 HEADNECK: the surviving fraction in assay [1] (0.5 nM) came out at 1.03 ± 0.14; in assay [1] (1 nM) it was 1.05 ± 0.086; in assay [1] (5 nM), 1.15 ± 0.13; in assay [1] (10 nM), 1.01 ± 0.16; in assay [1] (50 nM) it was 0.859 ± 0.027; in assay [1] (100 nM) it was 0.793 ± 0.0076. The surviving fraction amounted to 1.36 ± 0.92 in assay [1] (500 nM); 0.884 ± 0.15 in assay [1] (1000 nM); 0.944 ± 0.068 with SALINOMYCIN (0.5 nM); 1.13 ± 0.41 in the assay with SALINOMYCIN (1 nM); 0.951 ± 0.13 in the assay with SALINOMYCIN (5 nM); 0.729 ± 0.054 in the assay with SALINOMYCIN (10 nM). For the same test system, the surviving fraction turned out to be 0.921 ± 0.13 with SALINOMYCIN (50 nM), 0.636 ± 0.016 with SALINOMYCIN (100 nM), 0.133 ± 0.01 in the assay with SALINOMYCIN (500 nM) and 0.054 ± 0.0044 in the assay with SALINOMYCIN (1000 nM).
